# Results published in patent publication US20260152480A1, “POLYCYCLIC COMPOUND AND USE THEREOF” (TYK MEDICINES , INC., priority 2022, published 2026).
# Columns and labels:
# YAP-TEAD = test: Nano luciferase method to detect YAP-TEAD inhibitor activity (293T cells transfected with pGL3B-8×GTiiC-nLuc-CMV-fLuc); format: cell-based; details: Homo sapiens, HEK-293T; transfected 293T cells, 48 hours incubation; read-out: Nano Luciferas detection (IC50)
# Description: Experimental Example 2 Nano Luciferase Method to Detect YAP-TEAD Inhibitor Activity
# (1) Experimental materials and equipment: 293T cells were purchased from Nanjing Cobioer Biosciences CO., LTD. DMEM medium (high sugar, phenol red free, Bio-Channel), DMSO (dimethyl sulfoxide), Lipo6000™ transfection reagent (Beyotime), pGL3B-8×GTiiC-nLuc-CMV-fLuc plasmid, 0.25% EDTA Tripsin (trypsin solution), 1×PBS (phosphate buffer, PH7.2), 96-well white cell culture plate (PerkinElmer), Fetal Bovine Serum (FBS), 10,000 U/mL penicillin-G/streptomycin, High-speed cryo-centrifuge (EPPENDORF 5810R), 37° C. CO^2 incubator, Vi-Cell® cell counter, Envision microplate reader (PerkinElmer).
# Resuscitated 293T cells were inoculated into 10 cm petri dishes and placed in a 5% CO^2 incubator at a constant temperature of 37° C. To ensure transfection efficiency, cells in the logarithmic phase (cell density of about 50%-70%) should be used.
# One day before transfection, cells in logarithmic phase were digested with Trypsin-EDTA, the reaction was terminated by adding medium, and the cell suspension was made by blowing and mixing with a pipette.
# The cell concentration was determined using Vi-cell and diluted to a suspension of 5*10^5 cells per milliliter. Once the cell suspension was prepared, it was gently mixed and 10 ml of liquid was added to a 10 cm petri dish. […] The cells were incubated in a 5% CO^2 incubator at 37° C. for 1 day.
# Take two clean and sterile centrifuge tubes, added 750 μL of opti-MEM Medium without antibiotics and serum respectively, then added […] of plasmid (pGL3B-8×GTiiC-nLuc-CMV-fLuc) to one of the tubes and gently blown with a pipette for mixing; the other tube was added with Lipo6000 transfection reagent and gently blown with a pipette for mixing. After standing at room temperature for 5 minutes, the culture medium containing DNA was gently added to the culture medium containing Lipo6000 transfection reagent, mixed by gently inverting the centrifuge tube, and stood at room temperature for 5 minutes.
# The above mixture was added evenly dropwise to a 10-cm petri dish and replaced with fresh complete medium after 6 h of incubation.
# After 1 day of transfection, Trypsin EDTA was used to digest the cells, medium was added to terminate the reaction, and a cell suspension was made by blowing and mixing with a pipette.
# Cell concentration was determined using Vi-cell, and diluted to a suspension of 20,000 cells per milliliter.
# After the cell suspension was prepared, it was gently mixed and 100 μL was added to each well in a 96-well plate so that the density of cells to be measured was 2000 per well.
# The inoculated cell culture plates were incubated in an incubator, and the compounds in concentration gradients were added after about 24 hours.
# The 10 mM compound reservoir solution was diluted to 50 μM with culture medium, and 50 μM compound solution was added sequentially to the third column of the deep-well plate, and 216 μL of culture medium containing 0.5% DMSO to the fourth to eleventh columns.
# Gradient dilution: 100 μL of solution was pipetted from the third column and added to the fourth column, after mixing; another 100 μL of solution was pipetted from the fourth column and added to the fifth column, and the operation was repeated until the eleventh column.
# Using a multichannel pipette, 25 μL of compound solution was pipetted from the deep-well plate and added to the 96-well culture plate, and each compound was repeated four times on the 96-well plate. A concentration gradient with a maximum concentration of 10,000 nM, 1:3.16, was eventually formed on the 96-well plate.
# The 96-well plate was incubated in a 5% CO^2 incubator at a constant temperature of 37° C. for 48 hours, then removed and equilibrated at room temperature for 10 minutes.
# 100 μL of detection reagent was added to each well and placed on a horizontal shaker at low speed for 10 minutes to fully lyse the cells. […]
# [1] = Pharmacokinetic study of the drug, oral administration to rats (plasma, cerebrospinal fluid, brain tissue); format: in vivo; details: SD rat, 10 mg/kg, single; for Kp: brain tissue (post perfusion) and plasma, read-out: B/P value; for Kp uu: in vivo, read-out: Kpuu Value; for AUC(0-inf) / AUC(0-t) / Cmax / MRT last / Tmax: plasma
# Description: Experimental Example 3 Pharmacokinetic Study of the Drug
# Oral Administration Solvent: 5% DMSO+10% Solutol HS15+85% Saline
# Oral administration preparation process: weighed the appropriate amount of powder, added the appropriate volume of DMSO, vortex, then added the appropriate volume of Solutol solution, vortex, and added the appropriate amount of saline, vortex ultrasound into a homogeneous and clarified state of the preparation solution.
# The animal room was equipped with an air-conditioning system and well ventilated, and the indoor temperature was maintained in the range of 20-26° C., and the humidity was maintained in the range of 40%-70%. The animal room was artificially illuminated with 12 hours of light and 12 hours of dark (except for the working light that needed to be turned on for experimental operation and cleaning), and the experimental animals were free to feed and drink.
# Animals were purchased and fed normally for at least 3 days, and rats that were examined by a veterinarian and had qualified physical conditions were enrolled in this experiment; each rat was labeled with a tail mark. Animals in the oral administration group were fasted overnight the day before administration, and resumed feeding and drinking freely 4 hours after administration.
# Before administration, checked the state of the administered preparation, ensured the homogeneity of the preparation by vortexing, stirring or oscillating, and calculated the theoretical volume of the administered drug for each SD rat in each group according to the following formula.
# Mode of administration: Oral administration to rats, fasted overnight prior to administration.
# [2] = tested on: Human pleural mesothelioma cells NCI-H226; test: Proliferation inhibition assay of human pleural mesothelioma cells NCI-H226 (CCK8); format: cell-based; details: 72 h, 3 days incubation
# Description: Experimental Example 1 Cell Anti-Proliferation Test
# Proliferation Inhibition Assay of Human Pleural Mesothelioma Cells NCI-H226 by YAP-TEAD Inhibitor Compounds
# Experimental materials and equipment: Human pleural mesothelioma cells NCI-H226 were purchased from Nanjing Cobioer Biosciences CO., LTD. RPMI-1640 medium (Bio-Channel), DMSO (dimethyl sulfoxide), CCK8 (WST-8) cell analysis kit (Beyotime), 0.25% EDTA-Tripsin (trypsin solution), 1×PBS (phosphate buffer, PH7.2), 96-well plate (Corning), fetal bovine serum (FBS), 10,000 U/mL penicillin-G/streptomycin, high-speed cryo-centrifuge (EPPENDORF 5810R), enzyme-linked immunoassay (Tecan Spark).
# • A) Tumor cells were cultured in RPMI-1640 (containing 10% FBS and 100 U/mL penicillin-G/streptomycin) at 37° C., 5% CO^2 and saturated humidity until 80-90% density. • B) Removed the culture medium from 10 cm Petri dishes; • C) Rinsed the cells once with 10 ml 1×PBS; • D) Added 4 ml 0.25% EDTA-Tripsin into 37° C., 5% CO^2 incubator for trypsin digestion for 5 minutes, transferred to 15 ml centrifuge tube, centrifuged at 200 g for 5 minutes, discarded the supernatant to get cell precipitate; • E) Resuspend with 4 ml DMEM medium, count and adjust to 10,000 cells/ml. • F) Added cell suspension to 96-well plate with 100 μL per well volume and incubate overnight at 37° C., 5% CO^2 incubator.
# • A) Preparation of gradient dilution solution of tested compounds: the test compounds were configured into 1 mM reservoir solution. Then 1.5 μl of the reservoir solution was dissolved in 1.5 ml of DMSO-free culture solution, and then a 3-fold serial gradient dilution was performed with 0.1% DMSO culture solution for a total of 9 concentrations, and the concentrations of the compounds after dilution were as follows: • 333.33 nM, 111.11 nM, 37.03 nM, 12.35 nM, 4.15 nM, 1.37 nM, 0.46 nM, 0.15 nM • B) After thorough mixing, 100 μL of culture compound solution was taken separately to replace the culture solution in the cell culture plate, with 4 replicate wells for each concentration; • C) The cells were transferred to the incubator and incubated for 3 days.
# • A) Removed the cell culture plate and added 10 μl of CCK-8 (WST-8) solution per well in the biosafety cabinet. • B) Placed the cell culture plate back into the incubator and continued incubation for 3 hours. • C) Determined the absorbance value by selecting 450 nm on a TECAN enzyme-linked immunoassay detector.
# The cell viability (% Cell Viability) was calculated using the following formula.
# [formula] • A (dosing): absorbance of wells with cells, CCK8 solution and drug solution • A (blank): absorbance of wells with medium and CCK8 solution but no cells • A (0 dosing): absorbance of wells with cells, CCK8 solution and no drug solution • Cell viability: Cell proliferation viability or cytotoxicity viability IC50 values were obtained by curve fitting with GraphPad Prism 8 software.
SMILES,IC50 (YAP-TEAD) [nM],HL— [1] [h],Kp [1],Kp uu [1],AUC(0-inf) [1] [ng·h/mL],AUC(0-t) [1] [ng·h/mL],Cmax [1] [ng/mL],MRT last [1] [h],Tmax [1] [h],IC50 [2] [nM]
C=CC(=O)N1CCC(c2cccnc2Oc2ccc(C(F)(F)F)cc2)CC1 [Compound T59],≤ 100,2.66,1.22,0.765,3920,3910,679,4.6,1.5,≤ 100
C=CC(=O)N1CCC(c2c(Nc3ccc(C(F)(F)F)cc3)ncc3ccccc23)CC1 [Compound T37],100 to 1000,13.97,–,–,18000,12300,804,9.85,4.67,100 to 1000
C=CC(=O)N1CCC(c2cc(-c3cc[nH]n3)cnc2Nc2ccc(C(F)(F)F)cc2)CC1 [Compound T92],≤ 100,1.59,–,–,4830,4770,901,3.8,2.67,100 to 1000
C=CC(=O)N1CCC(c2cc(Cl)cnc2Oc2ccc(C(F)(F)F)cc2)CC1 [Compound T40],≤ 100,4.40,1.88,0.286,18000,17500,1650,6.75,1.67,≤ 100
C=CC(=O)N1CCC(c2cc(-c3cnn(C)c3)cnc2Nc2ccc(C(F)(F)F)cc2)CC1 [Compound T61],≤ 100,2.95,0.56,0.038,13200,10800,1960,3.49,2.67,1000 to 5000
C=CC(=O)N1CCC(c2nccnc2Oc2ccc(C(F)(F)F)cc2)CC1 [Compound T58],≤ 100,2.67,2.01,0.269,7560,7540,1180,5.81,2,≤ 100

# Continued, values first:
IC50 (YAP-TEAD) [nM],HL— [1] [h],Kp [1],Kp uu [1],AUC(0-inf) [1] [ng·h/mL],AUC(0-t) [1] [ng·h/mL],Cmax [1] [ng/mL],MRT last [1] [h],Tmax [1] [h],IC50 [2] [nM],SMILES
≤ 100,1.93,–,–,5260,5250,919,4.28,1.33,≤ 100,C=CC(=O)N1CCC(c2cccnc2Nc2ccc(C(F)(F)F)cc2)CC1 [Compound T1]
≤ 100,2.64,–,–,3500,3290,594,3.97,2,≤ 100,C=CC(=O)N1CCC(c2cc(C)cnc2Nc2ccc(C(F)(F)F)cc2)CC1 [Compound T22]
≤ 100,2.07,1.41,0.518,17400,17300,2840,4.48,2.67,≤ 100,C=CC(=O)N1CCC(c2nccnc2Nc2ccc(C(F)(F)F)cc2)CC1 [Compound T16]
≤ 100,3.03,–,–,19600,19400,1880,6.89,3.33,100 to 1000,C=CC(=O)N1CCC(c2ccc(Cl)nc2Nc2ccc(C(F)(F)F)cc2)CC1 [Compound T27]
